Data published in US9243019B2 (priority 2013, dated 2016).
Read-outs that look alike come from different tables or passages of the source.

Assay type: physicochemical
[1] = Table 3, accelerated for 0 month, hydroxysafflor yellow A per CN102675379A purity 89.9%, sodium salt purity 98.6%
[2] = Table 3, accelerated for 1 month, hydroxysafflor yellow A per CN102675379A purity 89.9%, sodium salt purity 98.6%
[3] = Table 3, accelerated for 2 months, hydroxysafflor yellow A per CN102675379A purity 89.9%, sodium salt purity 98.6%
[4] = Table 3, accelerated for 3 months, hydroxysafflor yellow A per CN102675379A purity 89.9%, sodium salt purity 98.6%
[5] = Table 4, accelerated for 0 month, hydroxysafflor yellow A by acidizing purity 99.2%, sodium salt purity 99.2%
[6] = Table 4, accelerated for 2 months, hydroxysafflor yellow A by acidizing purity 99.2%, sodium salt purity 99.2%
[7] = Table 4, accelerated for 3 months, hydroxysafflor yellow A by acidizing purity 99.2%, sodium salt purity 99.2%

SMILES: O=C(/C=C/c1ccc(O)cc1)C1=C(O)C(O)(C2OC(CO)C(O)C(O)C2O)C(O)=C(C2OC(CO)C(O)C(O)C2O)C1=O (stereo not drawn) [Hydroxysafflor yellow A, hydroxysafflor yellow A]
- Content (counting Hydroxyl A) [1]: 89.8%
- Total impurity [1]: 10.1%
- Content (counting Hydroxyl A) [2]: 84.7%
- Total impurity [2]: 14.9%
- Content (counting Hydroxyl A) [3]: 79.2%
- Total impurity [3]: 20.8%
- Content (counting Hydroxyl A) [4]: 71.2%
- Total impurity [4]: 28.6%
- Content (counting Hydroxyl A) [5]: 99.1%
- Total impurity [5]: 0.8%
- Total impurity (Table 4, accelerated for 1 month, hydroxysafflor yellow A by acidizing purity 99.2%, sodium salt purity 99.2%): 5.9%
- Content (counting Hydroxyl A) [6]: 89.2%
- Total impurity [6]: 10.7%
- Content (counting Hydroxyl A) [7]: 81.3%
- Total impurity [7]: 18.6%
